Measured values as given in patent publication US12036212B2, “Enhancement of tumor response to chemotherapy by activation of the asmase/ceramide pathway through timed administration of a short-acting anti-angiogenic agent” (Memorial Sloan-Kettering Cancer Center, priority 2014, dated 2024).

Experiments:
human cells = settings: cited from earlier work
ASMase = ASMase activation in HCAEC; type: cell-based, human; settings: cisplatin 0.1-50 μM
Procedure: HCAEC were obtained from Clonetics™ Coronary Artery Endothelial Cell Systems (Cambrex Bio Science Inc.). For HCAEC culturing and sub-culturing Clonetics cell system components were used: EBM®-2, Endothelial Cell Basal Medium-2 with addition of Clonetics EGM-2-MV SingleQuots containing growth supplements (Cambrex) (Biomedical Technologies, Inc.). For sub-culturing, monolayers were dissociated with Clonetics® Trypsin/EDTA solution for 2-3 min at 22° C. at a split ratio of 1:4 to expand the cell population for experiments. HCAEC cultures were maintained at 37° C. in 5% CO2 humidified incubators.
ASMase activity was quantified by radioenzymatic assay using [^14C-methylcholine]sphingomyelin (Amersham) as substrate as described (Schissel et al. J Biol Chem, 271, 18431-18436, 1996). Cell lysates were incubated with [^14C-methylcholine]-sphingomyelin substrate (0.026 mCi/9.5 nmol) in 250 mM sodium acetate, pH 5.0 supplemented with 0.1% Triton X-100 and 1 mM EDTA or 0.1 mM ZnCl. Reactions were terminated after 1 h with CHCl3:MeOH:1N HCl (100:100:1, v/v/v), and [^14C-methylcholine]phosphocholine product in the aqueous layer of the Folch extract was quantified using a Beckman Packard 2200 CA Tricarb scintillation counter. For detection of ASMase activity in patients, 10 μl of serum was used. […]

BAEC = assay: Apoptosis in vitro (Hoechst nuclear staining) in BAEC; type: cell-based, bovine; settings: bovine endothelial cells; cisplatin up to 50 μM; etoposide 50 μM alone, 8 hours
Procedure: Apoptosis was assessed in vitro by examining morphologic changes in nuclear chromatin using bis-benzimide trihydrochloride (Hoechst #33258; Sigma-Aldrich, Milwaukee WI). BAEC and HCAEC monolayer cultures were first detached using 0.25% trypsin and 0.02% EDTA in HBSS and then combined with the floating population of cells. The cell pellet was washed in PBS, resuspended in 3% paraformaldehyde, and incubated for 10 min at 22° C. Following the removal of fixative, cells were resuspended in PBS containing 8 μg/ml of Hoechst-33258. Following a 15-min incubation at 22° C., cells were placed on a glass slide, and scored for the incidence of apoptotic chromatin changes using fluorescence microscope.
Since the ASMase/ceramide pathway is known to play a critical role in endothelial injury and dysfunction, BAEC and HCAEC were treated with paclitaxel (100 nM), etoposide (50 μM), and cisplatin (0.1-50 μM), and endothelial apoptosis was assessed.
To set the basis for experiments involving evaluation of anti-angiogenic therapy in combination with chemotherapy, and the role of ASMase/ceramide pathway in this process, the effects of various factors on the chemotherapy induced cell death were assessed. BAEC were pre-incubated for 30 min with bFGF (2 ng/mL), VEGF (2 ng/mL) or nystatin (30 μg/mL) prior to treatment with etoposide (50 μM), and apoptosis was evaluated after 8 hours using bis-benzamide trihydrochloride staining (FIG. 3).

N.N.[Cl][Pt][Cl] [cisplatin]
ASMase (human cells): increase ASMase
Apoptosis (human cells): induce apoptosis
ASMase activation (ASMase): failed to activate ASMase
Apoptotic response (BAEC): failed to trigger an appropriate apoptotic response
